Experimental data taken from the supplement of paper PMC10627819.

Assays:
B. subtilis 168 [1] = assay: fitness (endpoint OD595 vs no drug) (fraction); higher = more growth
Outline: (§1)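 With the first reading as background, OD595 was measured every 30 min for 14 h in 384-well plates kept at 37 °C and inoculated at OD595 0.01. TSB, LB Lennox or CY was the medium. Fitness is the optical density at the transition into stationary phase divided by the robust mean of no-drug control wells, with a cap of 1.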

S. aureus Newman [2] = assay: as above
Outline: as §1

S. pneumoniae D39V [3] = assay: as above
Outline: as §1

B. subtilis 168 [4] = assay: Bliss interaction score (quartile over a dose matrix) (fitness difference); higher = more antagonism (negative = synergy)
Outline: (§2)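 Values were capped at 1 after dividing OD595 at stationary-phase entry by the plate's robust no-drug mean. This ratio is fitness, and single-drug fitness was inferred from the combination data. The Bliss score is observed minus product-expected fitness, given as quartiles over technical, biological and donor/recipient replicates.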

S. aureus DSM 20231 = assay: as above
Outline: as §2

S. aureus Newman [5] = assay: as above
Outline: as §2

S. pneumoniae D39V [6] = assay: as above
Outline: as §2
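Throughout, for Bliss interaction score (quartile over a dose matrix): first quartile when negative (synergy) and third quartile when positive (antagonism).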

CC1=C(C(=O)O)N2C(=O)[C@@H](NC(=O)[C@H](N)c3ccccc3)[C@H]2SC1 [Cephalexin] + C[n+]1ccc(-c2cc[n+](C)cc2)cc1 [Paraquat]
fitness
Details | first compound 0.125 µg/mL | first compound 0.25 µg/mL | first compound 0.5 µg/mL | first compound 1 µg/mL
B. subtilis 168 [1], partner 1.25 µg/mL | 0.908 | 0.892 | 0.924 | –
B. subtilis 168 [1], partner 2.5 µg/mL | 0.937 | 0.912 | 0.902 | –
B. subtilis 168 [1], partner 5 µg/mL | 0.815 | 0.795 | 0.851 | –
S. aureus Newman [2], partner 1.25 µg/mL | – | 0.986 | 0.874 | 0.874
S. aureus Newman [2], partner 2.5 µg/mL | – | 0.996 | ≥ 1 | 0.918
S. aureus Newman [2], partner 5 µg/mL | – | 0.982 | 0.963 | ≥ 1

fitness, S. pneumoniae D39V [3], one replicate
Details | first compound 0.125 µg/mL | first compound 0.25 µg/mL | first compound 0.5 µg/mL | first compound 1 µg/mL | first compound 2 µg/mL | first compound 4 µg/mL
partner 1.5 µg/mL | 0.999 | 0.982 | 0.998 | 0.828 | 0.21 | 0.0243
partner 3 µg/mL | 0.909 | 0.913 | 0.928 | 0.865 | 0.286 | 0.0238
partner 6 µg/mL | 0.896 | 0.897 | 0.9 | 0.861 | 0.328 | 0.0875

Details | Bliss interaction score
B. subtilis 168 [4] | 0.0473
S. aureus DSM 20231 | 0.0584
S. aureus Newman [5] | 0.0521
S. pneumoniae D39V [6] | 0.135

CC1=C(C(=O)O)N2C(=O)[C@@H](NC(=O)[C@H](N)c3ccccc3)[C@H]2SC1 [Cephalexin] + Cc1cc(NS(=O)(=O)c2ccc(N)cc2)no1 [Sulfamethoxazol]
fitness
Details | first compound 0.125 µg/mL | first compound 0.25 µg/mL | first compound 0.5 µg/mL | first compound 1 µg/mL
B. subtilis 168 [1], partner 1 µg/mL | 0.951 | 0.924 | 0.895 | –
B. subtilis 168 [1], partner 2 µg/mL | 0.904 | 0.937 | 0.902 | –
B. subtilis 168 [1], partner 4 µg/mL | 0.955 | 0.929 | 0.945 | –
S. aureus Newman [2], partner 1 µg/mL | – | ≥ 1 | 0.988 | 1
S. aureus Newman [2], partner 2 µg/mL | – | ≥ 1 | 0.979 | 0.983
S. aureus Newman [2], partner 4 µg/mL | – | 0.999 | ≥ 1 | ≥ 1

fitness, one replicate
Details | first compound 0.125 µg/mL | first compound 0.25 µg/mL | first compound 0.5 µg/mL | first compound 1 µg/mL | first compound 2 µg/mL | first compound 4 µg/mL
B. subtilis 168 [1], partner 0.5 µg/mL | – | 0.987 | ≥ 1 | ≥ 1 | – | –
B. subtilis 168 [1], partner 1 µg/mL | – | – | – | 0.861 | – | –
B. subtilis 168 [1], partner 2 µg/mL | – | – | – | 0.809 | – | –
S. aureus Newman [2], partner 2 µg/mL | – | – | – | – | ≥ 1 | –
S. aureus Newman [2], partner 4 µg/mL | – | – | – | – | ≥ 1 | –
S. aureus Newman [2], partner 8 µg/mL | – | – | 0.944 | ≥ 1 | ≥ 1 | –
S. pneumoniae D39V [3], partner 1 µg/mL | 0.92 | 0.925 | 0.933 | 0.678 | 0.0509 | 0
S. pneumoniae D39V [3], partner 2 µg/mL | 0.961 | 0.937 | 0.979 | 0.717 | 0.165 | 0.0786
S. pneumoniae D39V [3], partner 4 µg/mL | 0.963 | 0.972 | 0.954 | 0.685 | 0.209 | 0.013

Details | Bliss interaction score
B. subtilis 168 [4] | 0.0517
S. aureus DSM 20231 | 0.059
S. aureus Newman [5] | -0.021
S. pneumoniae D39V [6] | 0.0504

CC1=C(C(=O)O)N2C(=O)[C@@H](NC(=O)[C@H](N)c3ccccc3)[C@H]2SC1 [Cephalexin] + Cc1ncc([N+](=O)[O-])n1CCO [Metronidazole]
fitness
Details | partner 0.625 µg/mL | partner 1.073 µg/mL | partner 1.25 µg/mL | partner 2.145 µg/mL | partner 2.5 µg/mL | partner 4.29 µg/mL
B. subtilis 168 [1], first compound 0.125 µg/mL | 0.958 | – | 0.936 | – | 0.963 | –
B. subtilis 168 [1], first compound 0.25 µg/mL | 0.94 | – | 0.91 | – | 0.86 | –
B. subtilis 168 [1], first compound 0.5 µg/mL | 0.943 | – | 0.932 | – | 0.926 | –
S. aureus Newman [2], first compound 0.25 µg/mL | 0.962 | – | ≥ 1 | – | ≥ 1 | –
S. aureus Newman [2], first compound 0.5 µg/mL | 0.994 | – | 0.984 | – | ≥ 1 | –
S. aureus Newman [2], first compound 1 µg/mL | ≥ 1 | – | ≥ 1 | – | ≥ 1 | –
S. pneumoniae D39V [3], first compound 4 µg/mL | – | 0.0041 | – | 0.0332 | – | 0.0078

fitness, one replicate
Details | first compound 0.125 µg/mL | first compound 0.25 µg/mL | first compound 0.5 µg/mL | first compound 1 µg/mL
S. aureus Newman [2], partner 0.781 µg/mL | – | 0.989 | ≥ 1 | ≥ 1
S. aureus Newman [2], partner 1.562 µg/mL | – | ≥ 1 | ≥ 1 | ≥ 1
S. aureus Newman [2], partner 3.124 µg/mL | – | 0.998 | ≥ 1 | ≥ 1
S. pneumoniae D39V [3], partner 1.25 µg/mL | ≥ 1 | 0.989 | ≥ 1 | –
S. pneumoniae D39V [3], partner 2.5 µg/mL | ≥ 1 | ≥ 1 | ≥ 1 | –
S. pneumoniae D39V [3], partner 5 µg/mL | 0.971 | ≥ 1 | ≥ 1 | –

Details | Bliss interaction score
B. subtilis 168 [4] | -0.0395
S. aureus DSM 20231 | 0.0322
S. aureus Newman [5] | 0.0215
S. pneumoniae D39V [6] | 0.132

CC1=C(C(=O)O)N2C(=O)[C@@H](NC(=O)[C@H](N)c3ccccc3)[C@H]2SC1 [Cephalexin] + Cc1onc(-c2ccccc2)c1C(=O)N[C@@H]1C(=O)N2[C@@H]1SC(C)(C)[C@@H]2C(=O)O [Oxacillin]
Details | fitness
B. subtilis 168 [1], first compound 0.125 µg/mL, partner 0.002 µg/mL | 0.975
B. subtilis 168 [1], first compound 0.125 µg/mL, partner 0.004 µg/mL | 0.879
B. subtilis 168 [1], first compound 0.125 µg/mL, partner 0.008 µg/mL | 0.896
B. subtilis 168 [1], first compound 0.25 µg/mL, partner 0.002 µg/mL | 0.911
B. subtilis 168 [1], first compound 0.25 µg/mL, partner 0.004 µg/mL | 0.948
B. subtilis 168 [1], first compound 0.25 µg/mL, partner 0.008 µg/mL | 0.879
B. subtilis 168 [1], first compound 0.5 µg/mL, partner 0.002 µg/mL | 0.925
B. subtilis 168 [1], first compound 0.5 µg/mL, partner 0.004 µg/mL | 0.961
B. subtilis 168 [1], first compound 0.5 µg/mL, partner 0.008 µg/mL | 0.97
S. aureus Newman [2], first compound 0.25 µg/mL, partner 0.0156 µg/mL | 0.803
S. aureus Newman [2], first compound 0.25 µg/mL, partner 0.0312 µg/mL | 0.761
S. aureus Newman [2], first compound 0.25 µg/mL, partner 0.0625 µg/mL | 0.727
S. aureus Newman [2], first compound 0.5 µg/mL, partner 0.0156 µg/mL | 0.768
S. aureus Newman [2], first compound 0.5 µg/mL, partner 0.0312 µg/mL | 0.749
S. aureus Newman [2], first compound 0.5 µg/mL, partner 0.0625 µg/mL | 0.675
S. aureus Newman [2], first compound 1 µg/mL, partner 0.0156 µg/mL | 0.721
S. aureus Newman [2], first compound 1 µg/mL, partner 0.0312 µg/mL | 0.72
S. aureus Newman [2], first compound 1 µg/mL, partner 0.0625 µg/mL | 0.651
S. pneumoniae D39V [3], first compound 1 µg/mL, partner 0.02 µg/mL | 0.171
S. pneumoniae D39V [3], first compound 1 µg/mL, partner 0.04 µg/mL | 0.0188
S. pneumoniae D39V [3], first compound 2 µg/mL, partner 0.01 µg/mL | 0.1
S. pneumoniae D39V [3], first compound 2 µg/mL, partner 0.02 µg/mL | 0.044
S. pneumoniae D39V [3], first compound 2 µg/mL, partner 0.04 µg/mL | 0.0313
S. pneumoniae D39V [3], first compound 4 µg/mL, partner 0.01 µg/mL | 0.0222
S. pneumoniae D39V [3], first compound 4 µg/mL, partner 0.02 µg/mL | 0.0259
S. pneumoniae D39V [3], first compound 4 µg/mL, partner 0.04 µg/mL | 0.0275

fitness, one replicate
Details | first compound 0.125 µg/mL | first compound 0.25 µg/mL | first compound 0.5 µg/mL | first compound 1 µg/mL
B. subtilis 168 [1], partner 0.075 µg/mL | – | 0.65 | 0.551 | 0.563
B. subtilis 168 [1], partner 0.15 µg/mL | – | 0.0401 | 0.0556 | 0.0643
B. subtilis 168 [1], partner 0.3 µg/mL | – | 0.0429 | 0.0316 | 0.051
S. pneumoniae D39V [3], partner 0.01 µg/mL | ≥ 1 | 0.989 | 0.99 | –
S. pneumoniae D39V [3], partner 0.02 µg/mL | 0.92 | 0.897 | 0.886 | –
S. pneumoniae D39V [3], partner 0.04 µg/mL | 0.175 | 0.196 | 0.124 | –

Details | Bliss interaction score
B. subtilis 168 [4] | 0.0457
S. aureus DSM 20231 | 0.0592
S. aureus Newman [5] | 0.0632
S. pneumoniae D39V [6] | -0.216
